Source: patent US7045532B2 (Millennium Pharmaceuticals, Inc., priority 1999, dated 2006)
Where two headings read alike, the source gives them in different places. Blank lines part the entries; values can stand above or below the compound they belong to.

Legend:
[1] = target: T1, ACE (Sigma, A2580) (Sus scrofa, UniProt F1RRW5); assay: ACE enzymatic activity assay; format: biochemical, porcine; details: Ki class; compounds tested in 5% DMSO, 12 concentrations
T1 construct: ACE from porcine kidney; purchased Sigma A2580; host or cells: porcine kidney
T1 sequence (F1RRW5 34-1309): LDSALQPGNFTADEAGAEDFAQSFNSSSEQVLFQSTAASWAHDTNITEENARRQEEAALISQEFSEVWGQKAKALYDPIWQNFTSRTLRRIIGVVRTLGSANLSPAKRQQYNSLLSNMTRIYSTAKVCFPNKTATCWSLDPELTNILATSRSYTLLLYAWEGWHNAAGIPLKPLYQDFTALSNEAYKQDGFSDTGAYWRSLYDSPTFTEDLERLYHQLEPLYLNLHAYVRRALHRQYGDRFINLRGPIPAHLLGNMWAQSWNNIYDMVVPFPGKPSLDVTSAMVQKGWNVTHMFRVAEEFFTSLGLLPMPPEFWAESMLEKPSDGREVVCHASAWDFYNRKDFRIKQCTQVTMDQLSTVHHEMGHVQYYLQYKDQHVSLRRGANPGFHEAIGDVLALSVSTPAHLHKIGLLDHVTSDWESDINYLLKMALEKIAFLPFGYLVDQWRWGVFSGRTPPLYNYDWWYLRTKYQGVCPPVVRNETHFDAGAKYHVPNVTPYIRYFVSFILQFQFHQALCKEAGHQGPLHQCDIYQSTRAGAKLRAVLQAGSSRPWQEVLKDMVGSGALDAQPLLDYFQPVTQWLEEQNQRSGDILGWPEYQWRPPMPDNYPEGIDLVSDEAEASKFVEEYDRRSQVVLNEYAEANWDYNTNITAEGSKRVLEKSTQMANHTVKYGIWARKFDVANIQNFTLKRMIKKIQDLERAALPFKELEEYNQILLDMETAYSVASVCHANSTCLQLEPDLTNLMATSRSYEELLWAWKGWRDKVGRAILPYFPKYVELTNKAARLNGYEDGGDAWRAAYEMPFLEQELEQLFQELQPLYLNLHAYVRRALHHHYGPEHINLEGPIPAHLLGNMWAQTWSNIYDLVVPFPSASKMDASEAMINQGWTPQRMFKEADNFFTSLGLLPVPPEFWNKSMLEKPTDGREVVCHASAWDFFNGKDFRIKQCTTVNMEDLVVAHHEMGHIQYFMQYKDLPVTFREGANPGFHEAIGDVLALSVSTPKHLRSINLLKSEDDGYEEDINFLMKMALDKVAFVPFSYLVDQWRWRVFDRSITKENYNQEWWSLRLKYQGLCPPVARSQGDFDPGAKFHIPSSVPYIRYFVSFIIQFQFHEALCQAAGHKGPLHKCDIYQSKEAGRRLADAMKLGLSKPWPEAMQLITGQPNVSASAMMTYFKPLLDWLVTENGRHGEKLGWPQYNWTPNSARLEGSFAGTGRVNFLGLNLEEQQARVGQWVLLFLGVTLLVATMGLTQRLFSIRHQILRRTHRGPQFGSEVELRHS
Description: ACE (Sigma, A2580) enzymatic activity was assayed in microtiter plates using the following protocol. ACE assay buffer was made from 50 mM HEPES (Sigma), 300 mM sodium chloride (Sigma), and 0.01% Brij-35 (Pierce Chemical Co) at pH 7.5.
Reactions were mixed and incubated at 25° C. Enzymatic cleavage of the substrate is marked by a fluorescence change (excitation 330 nm, emission 415 nm).
The activity of the test compounds was investigated using the procedure outlined above. The compounds were tested in 5% DMSO. Enzyme activity was measured at 12 compound concentrations. […]. […]

[2] = target: T2, Carboxypeptidase A (Bos taurus, UniProt P00730); assay: Carboxypeptidase A activity assay; format: biochemical; details: Ki class; compounds tested in 5% DMSO, 12 concentrations
T2 sequence (P00730 111-419): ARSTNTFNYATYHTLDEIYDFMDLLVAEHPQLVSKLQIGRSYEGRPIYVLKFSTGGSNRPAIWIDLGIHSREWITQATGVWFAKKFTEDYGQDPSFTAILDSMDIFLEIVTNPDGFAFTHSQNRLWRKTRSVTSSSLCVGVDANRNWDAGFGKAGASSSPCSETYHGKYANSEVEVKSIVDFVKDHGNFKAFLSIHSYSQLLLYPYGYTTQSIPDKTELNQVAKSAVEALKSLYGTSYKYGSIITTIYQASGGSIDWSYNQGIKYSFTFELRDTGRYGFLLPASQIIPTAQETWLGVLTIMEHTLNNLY
Description: Carboxypeptidase A activity was measured using a literature assay (Holmquist and Riordan, “Carboxypeptidase A,” Methods of Enzymatic Analysis (1984) p. 44–60). The assay was adapted to a 96 well format by adjusting to a 300 μL assay volume and using ultra-thin bottom plates (Costar/Corning) read at 328 nm. The assay was stopped using EDTA.
The activity of the test compounds was investigated using the procedure outlined above. The compounds were tested in 5% DMSO. Enzyme activity was measured at 12 compound concentrations. The Ki was calculated by using Ki=Kiapp/(1+[S]/Km).
To determine whether a test compound is capable of modulating carboxypeptidase A's ability to cleave a substrate the method described in Holmquist and Riordan, Carboxypeptidase A, p44–60, Peptidase and Their Inhibitors in Method of Enzymatic Analysis (1984), may be used.
The assay may be adapted to a 96 well format by adjusting to a 300 μl assay volume and using ultrathin bottom plates (Costar/Coming) read at 328 nm with a final assay volume of 300 μl. The assay may be stopped using EDTA.

[3] = target: T3, ACE-2 (Homo sapiens, UniProt Q9BYF1); assay: ACE-2 Competitive Substrate Assay (ACS Assay); format: biochemical
T3 construct: a stop codon inserted after the serine immediately preceding the transmembrane domain; made in house; host or cells: CHO K1 cells (transient transfection, purified from conditioned medium)

[4] = Ki class, compounds tested in 5% DMSO, 12 concentrations, read-out: Human ACE-2 Activity
[5] = Ki class, compounds tested in 5% DMSO, 12 compound concentrations, Ki=Kiapp/(1+[S]/Km), read-out: Human ACE-2 Activity
[6] = Table 3, very good ACE-2 inhibiting compounds, species not given, read-out: ACE-2 Activity, Ki
[7] = Ki class per key, compounds tested in 5% DMSO, 12 compound concentrations, 25° C., Ki=Kiapp/(1+[S]/Km), read-out: Human ACE-2 Activity

T3 sequence (Q9BYF1 18-740 limits assumed): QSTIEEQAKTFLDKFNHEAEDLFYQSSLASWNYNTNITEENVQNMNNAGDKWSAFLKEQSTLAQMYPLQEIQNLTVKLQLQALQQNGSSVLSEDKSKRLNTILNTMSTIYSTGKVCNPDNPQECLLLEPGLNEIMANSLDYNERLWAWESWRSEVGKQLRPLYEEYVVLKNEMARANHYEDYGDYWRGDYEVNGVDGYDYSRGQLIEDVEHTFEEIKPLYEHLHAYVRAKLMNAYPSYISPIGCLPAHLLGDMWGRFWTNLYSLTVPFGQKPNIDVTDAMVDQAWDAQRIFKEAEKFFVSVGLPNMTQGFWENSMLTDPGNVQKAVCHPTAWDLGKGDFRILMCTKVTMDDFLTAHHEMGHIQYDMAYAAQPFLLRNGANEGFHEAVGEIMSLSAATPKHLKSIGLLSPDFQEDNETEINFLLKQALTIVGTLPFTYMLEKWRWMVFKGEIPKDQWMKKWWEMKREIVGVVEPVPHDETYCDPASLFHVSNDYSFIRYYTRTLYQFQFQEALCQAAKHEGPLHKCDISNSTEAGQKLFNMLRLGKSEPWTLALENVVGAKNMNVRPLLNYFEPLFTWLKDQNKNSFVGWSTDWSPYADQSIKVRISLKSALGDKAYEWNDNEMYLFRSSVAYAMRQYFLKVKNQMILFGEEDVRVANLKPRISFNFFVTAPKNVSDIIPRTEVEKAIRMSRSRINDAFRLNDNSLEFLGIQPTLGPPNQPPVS

Compound: 2-[2-(3-Benzyl-3H-imidazol-4-yl)-1-carboxy-ethylamino]-butync acid [GH]
Ki [1]: > 50000 nM | Ki [2]: > 50000 nM

Compound: O=C(O)C(Cc1ccccc1)NC(Cc1cncn1Cc1ccccc1)C(=O)O (stereo not shown) [GE, 3-(3-Benzyl-3H-imidazol-4-yl)-2-(1-carboxy-2-phenyl-ethylamino)-propronic acid]
Ki [1]: > 50000 nM | Ki [2]: > 50000 nM

Compound: 4-Methyl-2-(3-phenethyl-ureido)-pentanoic acidmethyl ester [DG]
Ki [1]: > 50000 nM | Ki [2]: > 50000 nM

Compound: CC(CS)C(=O)O (stereo not shown) [G, 3-Mercapto-2-methyl-propionic acid]
Ki [1]: > 50000 nM | Ki [3, 4]: > 500 nM

Compound: CC(C)C[C@H](N[C@@H](Cc1csc(-c2ccc(Cl)cc2Cl)n1)C(=O)O)C(=O)O [KG, (S,S)-2-{1-Carboxy-2-[2-(2,4-dichloro-phenyl)-thiazol-4-yl-]-ethylamino}-4-methyl-pentanoic acid]
Ki [3, 5]: < 100 nM | Ki [3, 6]: 50 to 100 nM

Compound: C=CCOc1ccc(C[C@H](N[C@@H](CC(C)C)C(=O)O)C(=O)O)cc1 [LW, 2-[2-(4-Allyloxy-phenyl)-1-carboxy-ethylamino]-4-methyl-pentanoic acid]
Ki [3, 5]: < 100 nM | Ki [3, 6]: 50 to 100 nM

Compound: CC(N[C@@H](Cc1ccccc1)C(=O)O)C(=O)O (stereo partly shown) [O, 2-(1-Carboxy-ethylamino)-3-phenyl-propionic acid]
Ki [3, 4]: > 500 nM

Compound: CCOC(=O)C(CCc1ccccc1)N[C@@H](CC(C)C)C(=O)O (stereo partly shown) [B, 2-(1-Ethoxycarbonyl-3-phenyl-propylamino)-4-methyl-pentanoicacid]
Ki [3, 4]: > 500 nM

Compound: Cc1ccc(-c2ccc(C[C@H](N[C@@H](CC(C)C)C(=O)O)C(=O)O)cc2)cc1 [NH, (S,S)-2-[1-Carboxy-2-(4′-methyl-biphenyl-4-yl)-ethylamino]-4-methyl-pentanoic acid]
Ki [3, 5]: < 100 nM | Ki [3, 6]: < 50 nM

Compound: CC(C)C[C@H](N[C@@H](Cc1ccc(-c2ccc3c(c2)OCO3)cc1)C(=O)O)C(=O)O [OZ, 2-[2-(4-Benzo[1,3]dioxol-5-yl-phenyl)-1-carboxy-ethylamino]-4-methyl-pentanoic acid]
Ki [3, 7]: < 100 nM | Ki [3, 6]: 50 to 100 nM

Compound: COC(=O)[C@@H](Cc1cccc(O)c1)N[C@@H](CC(C)C)C(=O)OCc1ccccc1 [LL, 2-[2-(3-Hydroxy-phenyl)-1-methoxycarbonyl-ethylamino]-4-methyl-pentanoic acid benzylester]
Ki [3, 5]: > 500 nM

More lines, now with the values ahead:

Ki [1]: > 50000 nM | Ki [2]: > 50000 nM
Compound: CC(C)CC(N[C@@H](Cc1cncn1Cc1ccc(Cl)cc1)C(=O)O)C(=O)O (single isomer, unassigned) [GN, 2-[1-Carboxy-2-[3-(4-chloro-benzyl)-3H-imidazol-4-yl]-ethylamino]4-methyl-pentanoic acid]

Ki [1]: > 50000 nM | Ki [2]: 10000 to 50000 nM
Compound: CC(C)CC(NC(Cc1cncn1Cc1cccc([N+](=O)[O-])c1)C(=O)O)C(=O)O (stereo not shown) [GA]

Ki [1]: > 50000 nM | Ki [3, 4]: > 500 nM
Compound: CC(C)C[C@H](NC(CCc1ccccc1)C(=O)O)C(=O)O (stereo partly shown) [C, 2-(1-Carboxy-3-phenyl-propylamino)-4-methyl-pentanoic acid]

Ki [1]: > 50000 nM | Ki [3, 4]: > 500 nM
Compound: CC(C)C[C@H](N[C@@H](CCc1ccccc1)C(=O)O)C(=O)O [D, 2-(1-Carboxy-3-phenyl-propylamino)-4-methyl-pentanoic acid]

Ki [3, 7]: > 500 nM
Compound: CC(C)C[C@H](N[C@@H](Cc1ccc(C(=O)NCc2cc(F)cc(F)c2)cc1)C(=O)O)C(=O)O [QD, 2-[1-Carboxy-2-[4-(3,5-difluoro-benzylcarbamoyl)phenyl]-ethylamino]-4-methyl-pentanoic acid]

Ki [3, 5]: > 500 nM
Compound: CC(C)CC(N[C@@H](Cc1cncn1CCc1ccccc1)C(=O)O)C(=O)O (single isomer, unassigned) [JL, 2-[1-Carboxy-2-[3-phenethyl-3H-imidazol-4-yl)-ethylamino]-4-methyl-pentanoic acid]

Ki [3, 5]: < 100 nM | Ki [3, 6]: 50 to 100 nM
Compound: CC(C)C[C@H](N[C@@H](Cn1ccn(Cc2cc(F)cc(F)c2)c1=O)C(=O)O)C(=O)O [LG, 2-[1-Carboxy-2-[3-(3,5-difluoro-benzyl)-2-oxo-2,3-dihydro-imidazol-1-yl]-ethylamino]-4-methyl-pentanoic acid]

Ki [3, 7]: > 500 nM
Compound: CC(C)C[C@H](N[C@@H](Cc1ccc(C(=O)NCc2ccccc2)cc1)C(=O)O)C(=O)O [QG, 2-[2-(4-Benzylcarbamoyl-phenyl)-1-carboxy-ethylamino]-4-methyl-pentanoic acid]

Ki [3, 5]: 100 to 500 nM
Compound: CC(C)C[C@H](N[C@@H](Cn1ccn(CCc2ccc(F)cc2)c1=O)C(=O)O)C(=O)O [NK, 2-(1-Carboxy-2-[3-[2-(4-fluoro-phenyl)-ethyl]-2-oxo2,3-dihydro-imidazol-1-yl)-ethylamino]-4-methyl-pentanoic acid]

Ki [3, 5]: > 500 nM
Compound: CCCCc1ccc(Cn2cncc2C[C@H](NC(CC(C)C)C(=O)O)C(=O)O)cc1 (single isomer, unassigned) [HJ, 2-[2-[3-(4-Butyl-benzyl)-3H-imidazol-4-yl]-1-carboxy-ethylamino]-4-methyl-pentanoic acid]

Ki [3, 5]: > 500 nM
Compound: CC(C)C[C@H](N[C@@H](Cc1ccc(-c2cccc(Cl)c2)o1)C(=O)O)C(=O)O [OS, (S), (S)-2-{1-Carboxy-2-[5-(3-chloro-phenyl)-furan-2-yl]-ethylamino}-4-methyl-pentanoic acid]

Ki [3, 5]: < 100 nM | Ki [3, 6]: 50 to 100 nM
Compound: CC(C)C[C@H](N[C@@H](Cn1ccn(Cc2cccc(F)c2)c1=O)C(=O)O)C(=O)O [OT, 2-{1-Carboxy-2-[3-(3-fluoro-benzyl)-2-oxo-2,3-dihydro-imidazol-1-yl]-ethylamino]-4-methyl-pentanoic acid]

Ki [3, 7]: < 100 nM | Ki [3, 6]: < 50 nM
Compound: CC(C)C[C@H](N[C@@H](Cc1ccc(OCC2COc3ccc(F)cc32)cc1)C(=O)O)C(=O)O (stereo partly shown) [QW, 2-[1-Carboxy-2-[4-(5-fluoro-2,3-dihydro-benzofuran-3-ylmethoxy)-phenyl]-ethylamino]-4-methyl-pentanoic acid]

Ki [3, 7]: > 500 nM
Compound: CC(C)C[C@H](N[C@@H](Cc1ccc(Oc2cc(F)cc(F)c2)cc1)C(=O)O)C(=O)O [PS, 2-[1-Carboxy-2-[4-(3,5-difluoro-phenoxy)-phenyl]-ethylamino]-4-methyl-pentanoic acid]
